Data reported in ChEMBL document CHEMBL1152129, “Quantitative structure-activity relationship and complex network approach to monoamine oxidase A and B inhibitors” (J Med Chem, 2008).

Legend:
[1] = target: T1, Amine oxidase [flavin-containing] B (Homo sapiens, UniProt P27338); test: Inhibition of human recombinant MAOB at 1 mM by fluorimetric method; details: 1000 µM
T1 sequence (P27338 whole entry): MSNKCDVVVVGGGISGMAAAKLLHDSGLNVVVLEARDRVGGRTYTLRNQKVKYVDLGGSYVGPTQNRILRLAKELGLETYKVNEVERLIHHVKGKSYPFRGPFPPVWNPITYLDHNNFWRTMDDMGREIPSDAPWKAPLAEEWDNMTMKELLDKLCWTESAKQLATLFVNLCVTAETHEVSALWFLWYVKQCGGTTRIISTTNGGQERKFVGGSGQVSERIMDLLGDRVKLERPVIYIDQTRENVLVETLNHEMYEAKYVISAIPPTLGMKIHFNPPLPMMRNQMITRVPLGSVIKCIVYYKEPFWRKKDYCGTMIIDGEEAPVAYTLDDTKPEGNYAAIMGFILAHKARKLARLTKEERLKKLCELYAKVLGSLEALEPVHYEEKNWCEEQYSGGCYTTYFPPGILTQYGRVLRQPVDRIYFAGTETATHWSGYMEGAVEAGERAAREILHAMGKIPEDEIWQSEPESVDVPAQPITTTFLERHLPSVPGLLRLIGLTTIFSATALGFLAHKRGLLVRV

[2] = target: T1, Amine oxidase [flavin-containing] B; test: Inhibition of human recombinant MAOB at 100 uM by fluorimetric method
[3] = target: T2, Amine oxidase [flavin-containing] A (Homo sapiens, UniProt P21397); test: Inhibition of human recombinant MAOA by fluorimetric method; details: for Activity: human
T2 sequence (P21397 whole entry): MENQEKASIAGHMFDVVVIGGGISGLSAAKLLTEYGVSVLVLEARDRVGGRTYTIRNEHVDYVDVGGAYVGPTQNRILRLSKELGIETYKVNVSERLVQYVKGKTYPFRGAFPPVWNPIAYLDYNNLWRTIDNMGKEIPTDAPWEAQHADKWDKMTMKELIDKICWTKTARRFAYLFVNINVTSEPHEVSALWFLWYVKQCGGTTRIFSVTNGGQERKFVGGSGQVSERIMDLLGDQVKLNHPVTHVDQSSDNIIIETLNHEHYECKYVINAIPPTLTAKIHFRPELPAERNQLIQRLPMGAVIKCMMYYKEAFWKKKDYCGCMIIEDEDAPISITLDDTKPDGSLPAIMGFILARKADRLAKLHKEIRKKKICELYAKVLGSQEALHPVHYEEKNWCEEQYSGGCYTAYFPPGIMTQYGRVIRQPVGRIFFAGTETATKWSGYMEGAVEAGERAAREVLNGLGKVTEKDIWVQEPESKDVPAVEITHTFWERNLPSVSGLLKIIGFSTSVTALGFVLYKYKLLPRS

Homo sapiens = species on record: Homo sapiens; test: Selectivity ratio of IC50 for human recombinant MAOA to IC50 for human recombinant MAOB
[4] = target: T2, Amine oxidase [flavin-containing] A; test: Inhibition of human liver MAOA
[5] = target: T1, Amine oxidase [flavin-containing] B; test: Inhibition of human liver MAOB

CC(=O)[C@@]1(O)CC[C@H]2[C@@H]3C[C@H](C)C4=CC(=O)CC[C@]4(C)[C@H]3CC[C@@]21C
Activity [1]: Not Active

COc1c(OCC(C)=O)ccc2cc(NC(C)=O)c(=O)oc12
Activity [2]: Not Active | IC50 [3]: 5.31 µM | Ratio IC50 (Homo sapiens): < 0.53

OC1CCCCC1N1CCC(c2ccccc2)CC1 (stereo unspecified)
Activity [4]: Not Active | Activity [5]: Not Active

COc1c(O)ccc2c(C)cc(=O)oc12
Activity [2]: Not Active | IC50 [3]: 80.3 µM

O=c1ccc2cc3c4c(oc3cc2o1)CC4
Activity [2]: Not Active | IC50 [3]: 57.9 µM | Ratio IC50 (Homo sapiens): < 0.58

CCOC(N)=O
Activity [4]: Not Active | Activity [5]: Not Active

O=C1CCCCC1Oc1ccc2ccc(=O)oc2c1 (stereo unspecified)
Activity [2]: Not Active | IC50 [3]: 43 µM | Ratio IC50 (Homo sapiens): < 0.43

COC(=O)[C@H](Cc1cnc[nH]1)NC(=O)Cc1ccc(N(CCCl)CCCl)cc1
Activity [2]: Not Active | Activity [5]: Not Active

O=NN(CCCl)C(=O)NC[C@@H](O)[C@H](O)CN(N=O)C(=O)NCCCl
Activity [1]: Not Active

Cn1cc(I)ccc1=O
Activity [4]: Not Active

O=c1oc2cc(O)ccc2c2c1CCC2
Activity [2]: Not Active | IC50 [3]: 48.2 µM | Ratio IC50 (Homo sapiens): < 0.48

Cc1c(O)ccc2c3c(c(=O)oc12)CCCC3
Activity [2]: Not Active | IC50 [3]: 60.1 µM | Ratio IC50 (Homo sapiens): < 0.6

CS(=O)(=O)OC[C@@H]1O[C@H]1[C@@H]1O[C@H]1COS(C)(=O)=O
Activity [1]: Not Active

COc1c(O)ccc2c3c(c(=O)oc12)CCC3
Activity [2]: Not Active | IC50 [3]: 63.5 µM | Ratio IC50 (Homo sapiens): < 0.63

N[C@@H]1C[C@H]1c1ccccc1.N[C@H]1C[C@@H]1c1ccccc1 (racemic) [TRANYLCYPROMINE]
Activity [4]: Not Active | Activity [5]: Not Active

CC(=O)Nc1nnc(S(N)(=O)=O)s1 [ACETAZOLAMIDE]
Activity [4]: Not Active | Activity [5]: Not Active

O=C1c2ccccc2C(=O)c2c(NCCNCCO)ccc(NCCNCCO)c21 [AMETANTRONE]
Activity [4]: Not Active | Activity [5]: Not Active

C=CCC(C(=O)NC(N)=O)C(C)C (stereo unspecified) [APRONAL]
Activity [4]: Not Active

CCOC(=O)OC(C)OC(=O)[C@@H]1N2C(=O)[C@@H](NC(=O)[C@H](N)c3ccccc3)[C@H]2SC1(C)C (stereo partly specified) [BACAMPICILLIN]
Activity [4]: Not Active | Activity [5]: Not Active

C[C@H](N)C(=O)N[C@@H]1[C@H]2C(=C(O)C[C@@H](O)[C@@H]2O)C(=O)O[C@]1(C)C(Cl)Cl [BACTOBOLIN]
Activity [4]: Not Active | Activity [5]: Not Active

O=C(O)CCCCSc1[nH]cnc2ncnc1-2 [BUTHIOPURINE]
Activity [4]: Not Active

C=C1[C@@H](C)[C@H]2[C@H](Cc3ccccc3)NC(=O)[C@]23OC(=O)/C=C/[C@H](O)CCC[C@@H](C)C/C=C/[C@H]3[C@@H]1O [CYTOCHALASIN B]
Activity [1]: Not Active

CC(=O)OCC(=O)[C@@]12N=C(C)O[C@@H]1C[C@H]1[C@@H]3CCC4=CC(=O)C=C[C@]4(C)[C@H]3[C@@H](O)C[C@@]12C [DEFLAZACORT]
Activity [4]: Not Active | Activity [5]: Not Active

NS(=O)(=O)c1cc(Cl)c(Cl)c(S(N)(=O)=O)c1 [DICHLORPHENAMIDE]
Activity [1]: Not Active

C1OC1CN1CCC(C2CCN(CC3CO3)CC2)CC1 (stereo unspecified) [EPIPROPIDINE]
Activity [1]: Not Active

CN1C[C@H](C(=O)N[C@]2(C)O[C@@]3(O)[C@@H]4CCCN4C(=O)[C@H](Cc4ccccc4)N3C2=O)C=C2c3cccc4[nH]cc(c34)C[C@H]21 [ERGOTAMINE]
Activity [1]: Not Active

CCc1cc(C(N)=S)ccn1 [ETHIONAMIDE]
Activity [2]: Not Active | Activity [5]: Not Active

CCC1(C)CC(=O)NC1=O (stereo unspecified) [ETHOSUXIMIDE]
Activity [2]: Not Active

O=c1[nH]c(=O)n([C@H]2C[C@H](O)[C@@H](CO)O2)cc1F [FLOXURIDINE]
Activity [2]: Not Active | Activity [5]: Not Active

CC1(C)O[C@@H]2C[C@H]3[C@@H]4C[C@H](F)C5=CC(=O)C=C[C@]5(C)[C@@]4(Cl)[C@@H](Cl)C[C@]3(C)[C@]2(C(=O)CO)O1 [FLUCLORONIDE]
Activity [2]: Not Active | Activity [5]: Not Active

N=c1nc2n(cc1F)[C@@H]1O[C@H](CO)[C@@H](O)[C@@H]1O2 [FLUROCITABINE]
Activity [1]: Not Active

NC(N)=N/N=C/c1ccc([N+](=O)[O-])o1 [FURAGUANIDINE]
Activity [2]: Not Active | Activity [5]: Not Active

O=[N+]([O-])c1ccc(/C=N/n2cnnc2)o1 [FURAZONAL]
Activity [2]: Not Active | Activity [5]: Not Active

O=CN(O)CC(=O)O [HADACIDIN]
Activity [1]: Not Active

CC[C@H](c1ccc(OP(=O)(O)O)cc1)[C@@H](CC)c1ccc(OP(=O)(O)O)cc1 [HEXESTROL DIPHOSPHATE]
Activity [2]: Not Active | Activity [5]: Not Active

CCCOC1=C(N2CC2)C(=O)C(OCCC)=C(N2CC2)C1=O [INPROQUONE]
Activity [1]: Not Active

O=[N+]([O-])O[C@@H]1CO[C@H]2[C@@H]1OC[C@@H]2O [ISOSORBIDE MONONITRATE]
Activity [2]: Not Active | Activity [5]: Not Active

N[C@@H](Cc1ccc(O)c(O)c1)C(=O)O [LEVODOPA]
Activity [1]: Not Active

O=NN(CCCl)C(=O)NC1CCCCC1 [LOMUSTINE]
Activity [2]: Not Active | Activity [5]: Not Active

O=C(Cc1ccc(N(CCCl)CCCl)cc1)NC[C@H](NC(=O)Cc1ccc(N(CCCl)CCCl)cc1)C(=O)O [LONIN 4]
Activity [2]: Not Active | Activity [5]: Not Active

Cc1cccc(C)c1NC(=O)C1CCCCN1C (stereo unspecified) [MEPIVACAINE]
Activity [2]: Not Active | Activity [5]: Not Active

CCCC(C)(COC(N)=O)COC(N)=O [MEPROBAMATE]
Activity [2]: Not Active | Activity [5]: Not Active

CC(=O)Nc1c(I)c(C(=O)N[C@H]2C(O)O[C@H](CO)[C@@H](O)[C@@H]2O)c(I)c(N(C)C(C)=O)c1I (stereo partly specified) [METRIZAMIDE]
Activity [2]: Not Active | Activity [5]: Not Active

Cc1ncc([N+](=O)[O-])n1CCO [METRONIDAZOLE]
Activity [2]: Not Active | Activity [5]: Not Active

COc1cc2c(cc1O)N=C[C@@H]1CC[C@H](O)N1C2=O [NEOTHRAMYCIN A]
Activity [4]: Not Active

O=c1[nH]nc(-c2ccncc2)o1 [NEOVADRINE]
Activity [4]: Not Active

CN(C)[C@@H]1C(O)=C(C(N)=O)C(=O)[C@@]2(O)C(O)=C3C(=O)c4c(O)cccc4[C@@](C)(O)[C@H]3[C@H](O)[C@@H]12 [OXYTETRACYCLINE]
Activity [4]: Not Active

CC[C@H](C)[C@@H]1NC(=O)[C@H](Cc2ccc(O)cc2)NC(=O)[C@@H](N)CSSC[C@@H](C(=O)N2CCC[C@H]2C(=O)N[C@@H](CC(C)C)C(=O)NCC(N)=O)NC(=O)[C@H](CC(N)=O)NC(=O)[C@H](CCC(N)=O)NC1=O [OXYTOCIN]
Activity [4]: Not Active

CCOc1ccc(NC(C)=O)cc1.Cl [PHENACETIN CHLORIDE]
Activity [4]: Not Active

CN1C(CSCC(F)(F)F)Nc2cc(Cl)c(S(N)(=O)=O)cc2S1(=O)=O (stereo unspecified) [POLYTHIAZIDE]
Activity [4]: Not Active

Nc1nc(=O)c2nc(CNc3ccc(C(=O)NC(CCC(=O)NC(CCC(=O)NC(CCC(=O)O)C(=O)O)C(=O)O)C(=O)O)cc3)cnc2[nH]1 (stereo unspecified) [PTEROPTERIN]
Activity [4]: Not Active

CCCCC1=C2N=C(N)N[C@H]3CC[C@@H](C[C@@H]1C)[C@@H]23 [PTILOCAULINE]
Activity [4]: Not Active

Nc1ccc(S(=O)(=O)Nc2ncccn2)cc1 [SULFADIAZINE]
Activity [4]: Not Active

[H]/N=C(/N)NS(=O)(=O)c1ccc(N)cc1 [SULFAGUANIDINE]
Activity [4]: Not Active

Cc1noc(NS(=O)(=O)c2ccc(N)cc2)c1C [SULFISOXAZOLE]
Activity [3]: Not Active

CCCCNc1ccc(C(=O)OCCN(C)C)cc1 [TETRACAINE]
Activity [4]: Not Active | Activity [5]: Not Active

Clc1sc(Cl)c(Cl)c1Cl [TETRACHLOROTHIOPHENE]
Activity [4]: Not Active | Activity [5]: Not Active

OC[C@H]1O[C@@H](n2cnc3c(S)ncnc32)[C@H](O)[C@@H]1O [THIOINOSINE]
Activity [3]: Not Active

N#CC(O[C@@H]1O[C@H](CO[C@@H]2O[C@H](CO)[C@@H](O)[C@H](O)[C@H]2O)[C@@H](O)[C@H](O)[C@H]1O)c1ccccc1 (stereo partly specified) [VITAMIN B17]
Activity [3]: Not Active
